In article PMC5983544, “Muscarinic M5 receptors modulate ethanol seeking in rats” (Neuropsychopharmacology, 2018):

What was measured:
rat M3 mAChR = molecular target: T1, rat M3 mAChR (Rattus norvegicus, UniProt P08483); assay: ACh-stimulated IP accumulation (IP-One) in CHO-rM3 cells; format: cell-based; details: Fig. 2c
T1 construct: host or cells: FlpIn CHO cells (Invitrogen)
Experimental: (§1) The IP-One assay kit (Cisbio) was used for the direct quantitative measurement of inositol phosphate (IP) accumulation in CHO-rM1, CHO-rM3 or CHO-rM5 cells, as described previously. The CHO-hCB1 pERK1/2 assays were performed as described in ref [24].

[1] = system: ethanol-preferring (iP) rats; assay: Operant ethanol self-administration, oral dosing; format: in vivo, rat
Source text: Male iP rats (n = 14) were trained to self-administer 10% (v/v) ethanol via lever presses under FR3 operant conditions for approximately 12 weeks, in the presence of a 1-s light conditioned stimulus (CS+) occurring when the ethanol solution was delivered and an olfactory cue (S+ cue; one drop of vanilla essence, placed directly below the ethanol-paired (active) lever), as previously described, followed by surgery and testing. […] Rats were then given 7 days of ethanol self-administration before receiving the alternate treatment in a counterbalanced manner. For full details refer to Supplementary material.

rat M4 mAChR [2] = molecular target: T2, rat M4 mAChR (Rattus norvegicus, UniProt P08485); assay: [3H]NMS equilibrium binding in whole CHO-rM4 cells; details: rM4, [3H]NMS binding
T2 construct: host or cells: FlpIn CHO cells (Invitrogen)
T2 sequence (P08485 1-478): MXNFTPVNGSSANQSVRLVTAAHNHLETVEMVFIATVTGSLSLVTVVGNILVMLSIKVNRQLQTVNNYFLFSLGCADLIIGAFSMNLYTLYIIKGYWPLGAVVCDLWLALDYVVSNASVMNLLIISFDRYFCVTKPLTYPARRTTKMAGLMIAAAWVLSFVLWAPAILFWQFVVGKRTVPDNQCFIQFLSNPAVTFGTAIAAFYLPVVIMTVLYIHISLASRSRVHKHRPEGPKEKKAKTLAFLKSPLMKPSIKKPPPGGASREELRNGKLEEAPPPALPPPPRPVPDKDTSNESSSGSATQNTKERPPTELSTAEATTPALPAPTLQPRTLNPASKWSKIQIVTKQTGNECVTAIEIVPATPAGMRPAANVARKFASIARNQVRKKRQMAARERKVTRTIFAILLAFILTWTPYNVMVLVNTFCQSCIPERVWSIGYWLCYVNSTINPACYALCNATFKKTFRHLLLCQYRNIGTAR
Experimental: (§2) Rat mAChR subtypes (rM1–rM5; Origene) and human cannabinoid 1 receptor (hCB1; ref. [24]) constructs were isogenically integrated into FlpIn CHO cells (Invitrogen) and cells were selected in the presence of […] hygromycin B at 37 °C, 5% CO2, as previously described for the human M1 mAChR [25]. All cells were sub-cultured and seeded as previously described for the CHO-hM5 cells.
(§3) [^3H]NMS equilibrium binding assays in CHO-rM1 to CHO-rM5 cells were performed as previously described for CHO-hM5 cells. For [^35S]GTPγS binding, CHO-rM2 and CHO-rM4 cell membranes were prepared as described in Supplementary information. Membrane [^35S]GTPγS binding was performed as described in ref [26]., except GDP and [^35S]GTPγS concentrations were 1 μM and 0.3 nM, respectively. [^3H](+)-pentazocine binding was performed as described in ref. [27].

hM5 mAChR = details: same assay; cited from earlier work
rat M4 mAChR [3] = molecular target: T2, rat M4 mAChR; assay: ACh-stimulated [35S]GTPγS binding in CHO-rM4 cell membranes; format: biochemical; details: rM4, [35S]GTPγS binding
Experimental: as §3

rat M5 mAChR = molecular target: T3, rat M5 mAChR (Rattus norvegicus, UniProt P08911); assay: ACh-stimulated IP accumulation (IP-One) in CHO-rM5 cells; format: cell-based
T3 sequence (P08911 1-531): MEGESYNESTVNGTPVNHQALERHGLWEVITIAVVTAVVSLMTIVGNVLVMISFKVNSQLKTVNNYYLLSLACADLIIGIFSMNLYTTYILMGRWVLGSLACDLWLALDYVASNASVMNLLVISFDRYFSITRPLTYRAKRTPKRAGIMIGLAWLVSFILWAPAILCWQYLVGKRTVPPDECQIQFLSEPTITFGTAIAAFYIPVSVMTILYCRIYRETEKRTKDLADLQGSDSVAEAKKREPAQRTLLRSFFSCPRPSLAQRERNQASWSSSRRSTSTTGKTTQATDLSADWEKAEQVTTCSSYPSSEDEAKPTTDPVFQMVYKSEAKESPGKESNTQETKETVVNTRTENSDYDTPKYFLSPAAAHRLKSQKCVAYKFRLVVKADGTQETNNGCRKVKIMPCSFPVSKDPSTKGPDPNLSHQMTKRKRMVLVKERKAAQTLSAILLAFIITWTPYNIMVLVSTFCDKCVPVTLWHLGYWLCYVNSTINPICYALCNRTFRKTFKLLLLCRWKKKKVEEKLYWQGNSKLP
Experimental: as §1

rat M2 mAChR [4] = molecular target: T4, rat M2 mAChR (Rattus norvegicus, UniProt P10980); assay: ACh-stimulated [35S]GTPγS binding in CHO-rM2 cell membranes; format: biochemical; details: rM2, [35S]GTPγS binding
T4 construct: host or cells: FlpIn CHO cells (Invitrogen)
T4 sequence (P10980 1-466): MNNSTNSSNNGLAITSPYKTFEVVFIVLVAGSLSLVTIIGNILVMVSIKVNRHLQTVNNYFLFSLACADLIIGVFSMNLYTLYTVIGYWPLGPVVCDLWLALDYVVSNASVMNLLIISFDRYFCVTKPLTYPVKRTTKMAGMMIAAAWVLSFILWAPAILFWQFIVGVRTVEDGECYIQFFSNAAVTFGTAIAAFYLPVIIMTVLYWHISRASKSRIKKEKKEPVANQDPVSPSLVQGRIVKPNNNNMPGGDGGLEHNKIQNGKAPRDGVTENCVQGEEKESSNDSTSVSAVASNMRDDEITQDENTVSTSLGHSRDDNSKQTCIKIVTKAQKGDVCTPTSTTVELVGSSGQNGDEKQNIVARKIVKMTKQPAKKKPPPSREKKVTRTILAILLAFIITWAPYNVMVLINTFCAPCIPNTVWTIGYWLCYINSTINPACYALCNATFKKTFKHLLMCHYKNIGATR
Experimental: as §3

rat M2 mAChR [5] = molecular target: T4, rat M2 mAChR; assay: [3H]NMS equilibrium binding in whole CHO-rM2 cells; details: rM2, [3H]NMS binding
Experimental: as §2, §3

T1 sequence (P08483 whole entry): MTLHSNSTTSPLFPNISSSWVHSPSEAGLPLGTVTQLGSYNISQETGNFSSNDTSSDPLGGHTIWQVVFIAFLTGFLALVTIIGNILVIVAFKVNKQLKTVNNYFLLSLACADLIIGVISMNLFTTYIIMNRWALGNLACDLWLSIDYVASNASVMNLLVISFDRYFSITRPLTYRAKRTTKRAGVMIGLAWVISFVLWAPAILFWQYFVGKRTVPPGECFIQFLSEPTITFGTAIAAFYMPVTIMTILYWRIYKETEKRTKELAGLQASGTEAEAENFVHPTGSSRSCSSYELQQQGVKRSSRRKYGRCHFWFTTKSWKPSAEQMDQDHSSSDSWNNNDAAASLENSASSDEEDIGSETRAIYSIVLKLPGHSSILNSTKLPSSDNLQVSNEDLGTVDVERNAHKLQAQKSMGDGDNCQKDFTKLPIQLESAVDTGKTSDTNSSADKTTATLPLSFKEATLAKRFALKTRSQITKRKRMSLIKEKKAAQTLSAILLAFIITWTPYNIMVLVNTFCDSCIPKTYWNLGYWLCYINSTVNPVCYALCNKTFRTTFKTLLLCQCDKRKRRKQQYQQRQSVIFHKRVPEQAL

## O=C(c1ccc(F)c(F)c1)N1CCN2C(=O)c3ccccc3[C@@]12c1ccc(Cl)cc1 [ML375, (S)-9b-(4-chlorophenyl)-1-(3,4-difluorobenzoyl)-2,3-dihydro-1H-imidazo[2,1-a]isoi ndol-5(9bH)-one]
Rat M3 mAChR
  activity on ACh function at rM3: weak activity
[1]; 30 mg/kg p.o. at 3 h, 11 h and 27 h prior to testing, P = 0.037
  latency to first water response vs vehicle: extends the latency
[1]; 30 mg/kg p.o. at 27 h, 11 h and 3 h prior to test, 10% ethanol, FR3, P = 0.0015
  ethanol responding vs vehicle: significantly reduced ethanol responding
[1]; 30 mg/kg p.o. at 27 h, 11 h and 3 h prior to test, P = 0.98
  responding for water vs vehicle: no difference
[1]; 30 mg/kg p.o., P = 0.73
  latency to first ethanol reward vs vehicle: no difference
Rat M4 mAChR [2]
  effect on ACh affinity: no significant effects
hM5 mAChR
  binding affinity pKB: 6.87
  cooperativity with ACh binding, Log α: −1.37
Rat M4 mAChR [3]
  effect on ACh potency: no significant effects
Rat M5 mAChR; rM5
  functional cooperativity between ML375 and ACh: high negative cooperativity
Rat M5 mAChR; read-out: functional affinity pKB (converted)
  Kb: 0.155 µM
Rat M2 mAChR [4]
  effect on ACh potency: no significant effects
Rat M2 mAChR [5]
  effect on ACh affinity: no significant effects
